According to ChEMBL document CHEMBL1125224, “Examination of HIV-1 protease secondary structure specificity using conformationally constrained inhibitors” (J Med Chem, 1991):

molecular target: Human immunodeficiency virus type 1 protease (Human immunodeficiency virus 1, UniProt Q72874); test: Concentration required to inhibit HIV-1 protease activity calculated from plots of % inhibition vs inhibitor concentration

First: CC[C@H](C)[C@H](NC(=O)C[C@H](O)[C@H](CC1CCCCC1)NC(=O)CC1C=CCN2C(=O)CCC(CNCc3ccccc3)C(=O)N12)C(=O)N[C@@H](Cc1ccccc1)C(=O)O (stereo not given in full)
Second: CCC(C)[C@H](NC(=O)C[C@H](O)[C@H](CC(C)C)NC(=O)CC1C=CCN2C(=O)CCC(CNCc3ccccc3)C(=O)N12)C(=O)N[C@@H](Cc1ccccc1)C(N)=O (stereo not given in full)
The IC50 of the first is 17-fold higher: 360 µM for the first, 21 µM for the second.

Compared with `CC[C@H](C)[C@H](NC(=O)C[C@H](O)[C@H](CC(C)C)NC(=O)CC1C=CCN2C(=O)CCC(CNCc3ccccc3)C(=O)N12)C(=O)N[C@@H](Cc1ccccc1)C(=O)OC` (stereo not given in full), `CCC(C)[C@H](NC(=O)C[C@H](O)[C@H](Cc1ccccc1)NC(=O)CC1C=CCN2C(=O)CCC(CNCc3ccccc3)C(=O)N12)C(=O)N[C@@H](Cc1ccccc1)C(=O)OC` (stereo not given in full) is 2.5-fold higher in IC50: 140 µM for the first, 350 µM for the second. The first is the more potent here.

`CCC(C)[C@H](NC(=O)C[C@H](O)[C@H](CC1CCCCC1)NC(=O)CC1CCCN2C(=O)CCC(CN)C(=O)N12)C(=O)N[C@@H](Cc1ccccc1)C(N)=O` (stereo not given in full) gave an IC50 of 0.026 µM.
